Our source for the EC50 values is patent US8563714B2, “Bridged spiro [2.4] heptane derivatives as ALX receptor and/or FPRL2 agonists” (Actelion Pharmaceuticals Ltd., priority 2009, dated 2013).

Experiment [1] deals with T1, human ALX receptor (Homo sapiens, UniProt P25090).
T1 construct: expressed in transfected cells; host or cells: HEK293 (HEK293-hALXR-Gα16)
T1 sequence (P25090 1-351): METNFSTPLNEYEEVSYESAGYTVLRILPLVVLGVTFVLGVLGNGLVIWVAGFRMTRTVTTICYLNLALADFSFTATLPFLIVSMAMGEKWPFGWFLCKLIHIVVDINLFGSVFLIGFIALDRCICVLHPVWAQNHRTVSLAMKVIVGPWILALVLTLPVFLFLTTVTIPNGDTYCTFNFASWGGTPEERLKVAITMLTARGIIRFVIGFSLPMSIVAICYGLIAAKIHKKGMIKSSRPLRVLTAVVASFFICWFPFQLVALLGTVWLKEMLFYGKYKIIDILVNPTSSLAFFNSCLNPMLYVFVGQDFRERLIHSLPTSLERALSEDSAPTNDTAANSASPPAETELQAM
Briefly: Intracellular calcium measurements (FLIPR), agonistic activity in HEK293-hALXR-Gα16 cells. The class given is cell-based. The settings on record: Fluo-4 calcium FLIPR, normalized to WKYMVm 10 nM. A digest of the protocol:
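HEK293 cells expressing hALXR and Gα16 were loaded with 1 μM Fluo-4 AM and 20 mM HEPES for 60 min at 37°C, then exposed to serially diluted compound. FLIPR fluorescence was read at ex 488/em 540 nm. Baseline-subtracted peak responses were normalized to 10 nM WKYMVm.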

Experiment [2] concerns the target T2, human FPRL2 (Homo sapiens, UniProt P25089).
T2 construct: expressed in transfected cells; host or cells: HEK293 (HEK293-hFPRL2-Gα16)
T2 sequence (P25089 1-353): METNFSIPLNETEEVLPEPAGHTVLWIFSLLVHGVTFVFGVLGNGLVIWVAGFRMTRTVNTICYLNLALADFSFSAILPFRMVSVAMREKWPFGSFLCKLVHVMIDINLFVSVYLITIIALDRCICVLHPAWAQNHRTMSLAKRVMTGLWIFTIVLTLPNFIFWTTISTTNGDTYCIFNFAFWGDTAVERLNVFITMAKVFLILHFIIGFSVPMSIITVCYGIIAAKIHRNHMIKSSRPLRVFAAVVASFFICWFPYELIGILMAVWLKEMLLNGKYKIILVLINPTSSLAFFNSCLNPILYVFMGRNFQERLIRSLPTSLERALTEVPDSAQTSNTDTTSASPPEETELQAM
Briefly: Intracellular calcium measurements (FLIPR), agonistic activity in HEK293-hFPRL2-Gα16 cells. The format is cell-based. Conditions: Fluo-4 calcium FLIPR, normalized to GLY14-Humanin 100 nM. In a few lines:
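Peak values after baseline subtraction are expressed relative to 100 nM Gly14-Humanin; compounds diluted in assay buffer from 10 mM DMSO stocks.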

As to `O=C(NCCCCN1CCCC1)[C@H]1[C@H](C(=O)NCc2c(F)cc(F)cc2F)[C@@H]2C=C[C@H]1C21CC1` (racemic) [Example 346, (5R*)—N^5-(2,4,6-Trifluorophenyl-methyl)-(6R*)—N^6-(4-pyrrolidino-butyl)-(4S*,7R*)-[4,7-ethenylene-spiro[2.4]heptane]-5,6-dicarboxamide], the 50% effective concentration (EC50) is 1540 nM in experiment [1] and 508 nM in experiment [2].
For the compound `O=C(NCCOCCO)[C@H]1[C@H](C(=O)Nc2ncc(Br)s2)[C@@H]2CC[C@H]1C21CC1` [Example 407, (5R)—N^5-(5-Bromothiazol-2-yl)-(6R)—N^6-(2-(2-hydroxyethoxy)ethyl)-(4S,7R)-[4,7-ethylene-spiro[2.4]heptane]-5,6-dicarboxamide], the EC50 in experiment [1] was 11 nM; in experiment [2] it was 9230 nM.
In the case of `O=C(NCCCCN1CCCC1)[C@H]1[C@H](C(=O)Nc2cnc(Br)cn2)[C@@H]2C=C[C@H]1C21CC1` (racemic) [Example 251, (5R*)—N^5-(2-Bromo-pyrazin-5-yl)-(6R*)—N^6-(4-pyrrolidin-1-yl-butyl)-(4S*,7R*)-[4,7-ethenylene-spiro[2.4]heptane]-5,6-dicarboxamide], the EC50 in experiment [1] is 7.9 nM; in experiment [2], 558 nM.
Take `NCCCCNC(=O)[C@H]1[C@H](C(=O)NCc2ccc(Br)cc2F)[C@@H]2C=C[C@H]1C21CC1` [Example 320, (5R)—N^5-(4-Bromo-2-fluorophenyl-methyl)-(6R)—N^6-(4-amino-butyl)-(4S,7R)-[4,7-ethenylene-spiro[2.4]heptane]-5,6-dicarboxamide]: the results for the EC50 in experiment [1] and in experiment [2] were 52 nM and 472 nM, respectively.
